According to US8012751B2, “Differentiation of pluripotent embryonic stem cells” (Wisconsin Alumni Research Foundation, priority 2005, dated 2011):

What was measured:
mouse morulas = experiment: development of pre-implantation embryos to expanded blastocysts
Description: (§1) Three to nine-week-old female B6C3F1 mice (Charles Rivers) were superovulated with a single 10 IU intraperitoneal injection of Pregnant Mare's Serum Gonadotrophin (Gestyl, Diosynth B.V.—OSS). Forty-eight hours later, ovulation was triggered with a single 10 IU intraperitoneal injection of human Chorionic Gonadotrophin (hCG, Novarel/Ferring) and the female mice were mated with male BDF1 mice (Charles Rivers) of proven fertility. Two-cell stage embryos were flushed from the oviducts of the female mice 38 to 40 hours after the hCG injection using modified-Human Tubal Fluid medium (m-HTF, Irvine Scientific) supplemented with 0.5 mg/mL polyvinyl alcohol (PVA, Sigma). The resulting embryos were washed and cultured in the same medium. Groups of 10-15 embryos were cultured at 37° C. with 5% CO2/95% air in 50 μL drops of m-HTF medium covered with mineral oil (Ovoil, Vitrolife). In the outgrowth experiments, the zona pellucida was digested with pronase and embryos were plated out on gelatin in ES cell derivation medium with 1000 U/mL LIF.
(§2) Human ES cells were plated out as small colonies on matrigel, mouse ES cells on gelatin. DEVD.fmk was added twice a day and half of the ES cell medium was changed daily. As a control, the same volume of DEVD.fmk solvent (DMSO) was added and no significant effect on the number of undifferentiated cells was observed. […]

[1] = system: PARP-1 activity in human ES cells; experiment: in vitro PARP activity assay; type: cell-based; settings: human ES cells treated with DEVD.fmk; p<0.01
Protocol: (§3) Apoptotic cells were detected using the Annexin-V binding kit (ApoAlert, Clontech) or the TUNEL assay kit (DeadEnd, Promega). PARP activity was determined according to a protocol published by Bakondi and others (Bakondi et al., 2002). In order to detect activated caspase-3 or cleaved p85 PARP-1, cells were fixed in CytoFix (BD), permeablized in CytoPerm, and incubated at 1 μg/ml of anti-active caspase-3 antibody (Cellsignalling) or with 1 μg/ml anti-p85 PARP-1 (Promega) overnight at 4° C. The cells were then washed with CytoPern and incubated with secondary anti-rabbit FITC conjugated antibodies (1:200 dilution) for 60 minutes at room temperature. Mouse embryos were fixed in methanol:DMSO (4:1) (Sigma) overnight at 4° C., re-hydrated in 50% methanol, and then incubated with the primary antibodies (anti-p85 PARP-1 or anti-active caspase-3) in PBS with 2% nonfat instant skim milk and 0.5% Triton-X 100 with gentle shaking overnight at 4° C. Embryos were washed 6 times for 5 minutes at room temperature in PBS with 2% nonfat instant skim milk and 0.5% Triton-X 100 with gentle shaking and incubated in the same way with the secondary fluorescent antibody. Cells and embryos were visualized using a confocal laserscan microscope (Leica) or flow cytometry.
Human ES cells were plated out as small colonies on matrigel, mouse ES cells on gelatin. […]

human ES cells [2] = experiment: microarray gene expression analysis of DEVD.fmk treated cells; type: cell-based
Description: Since ES cells differentiate relatively uniformly from their undifferentiated state into the spindle-shaped cells, we performed a microarray analysis of the differentiated human cells treated with DEVD.fmk. […] In both zebrafish and Xenopus, dickkopf genes have been associated with the development of mesoderm and endoderm. The identity of the differentiated cell type is most likely a common precursor of mesoderm and endoderm (“mesendoderm”).

human ES cells [3] = experiment: morphology and time of differentiation of treated ES cells; type: cell-based
Protocol: (§4) H1 human ES cells (WiCell) were cultured as previously described and incorporated by reference herein (Amit et al., 2000). Human ES cells were cultured under feeder-free conditions on culture flasks that were pre-coated with matrigel™ (Becton Dickinson Labware, Bedford, MA), using medium conditioned overnight on dense murine embryonic fibroblasts (MEFs) (Xu et al., 2001a). D3 mouse ES cells (ATCC) were cultured under feeder-free conditions in mouse ES cell medium, consisting of 85% Knock-Out DMEM supplemented with 15% Gibco KNOCKOUT Serum Replacement, 2.5 mM glutamine, 0.1 mM beta-mercaptoethanol (Sigma), and 1000 U/l LIF (Esgro) on gelatin-coated plates. Murine and human fibroblasts and the 293T cell lines were cultivated in DMEM +10% Fetal bovine serum (FBS) and 1% non essential amino acids.
as §2, with “observed. Recombinant TAT-caspase-3rev was added 4 hours after application of caspase blocker and equal volumes of TAT protein served as controls.” for “observed.”

human ES cells [4] = experiment: Annexin-V EGFP binding (programmed cell death); type: cell-based; settings: p=0.0011
Protocol: as §3, with “Embryos were washed 6 times for 5 minutes at room temperature in PBS with 2% nonfat instant skim milk and 0.5% Triton-X 100 with gentle shaking and incubated in the same way with the secondary fluorescent antibody. Cells and embryos were visualized using a confocal laserscan microscope (Leica) or flow cytometry.” left out
Cells were treated with trypsin/EDTA and washed with PBS (both reagents are available through Invitrogen Corp.) Dead cells were excluded from analysis by forward- and side-scatter gating. Eighteen samples were analyzed using a FACScan (Becton Dickinson) flow cytometer and Cellquest software (Becton Dickinson). […] Cells were analyzed by flow cytometry analysis in a fluorescence activated cell sorter. […]

human ES cells [5] = experiment: cell proliferation assay (MTS test); type: cell-based
Protocol: Human ES cells were grown for the indicated time in 96-wells on Matrigel and a MTS test (CellTiter 96, Promega) was performed according to manufacturers′ instructions.
Human ES cells were plated out as small colonies on matrigel, mouse ES cells on gelatin. DEVD.fmk was added twice a day and half of the ES cell medium was changed daily. As a control, the same volume of DEVD.fmk solvent (DMSO) was added and no significant effect on the number of undifferentiated cells was observed. Recombinant TAT-caspase-3rev was added 4 hours after application of caspase blocker and equal volumes of TAT protein served as controls. Mouse embryos were treated once in the 50 μl microdrop with the given concentration of DEVD.fmk or post-incubation 4 hours later with recombinant TAT-caspase-3rev.

mouse embryos = experiment: embryo culture outgrowth experiments; settings: treated embryos n=34
Description: as §1, §2

[6] = system: p85 fragment of PARP-1 in human ES cells; experiment: Western immunoblotting for cleaved p85 PARP-1 fragment; type: cell-based; settings: human ES cells treated with DEVD.fmk
Protocol: Cell lysates were collected from H1 Human ES cells grown on mouse embryonic fibroblasts, D3 Mouse ES cells, Human Foreskin Fibroblasts (HF), 19 MEFs, and apoptotic MEFs induced with 25 μl/ml of 3% H2O2. Cytosolic and mitochondrial lysates were isolated using the ApoAlert Cell Fractionation Kit (Clontech, Palo Alto, Calif.) and whole-cell lysates were isolated using M-PER Mammalian Protein Extraction Reagent (Pierce, Rockford, Ill.) with 1:1000 dilution of Protease Inhibitor Cocktail (Sigma) and Pefablock SC (final concentration 0.2 μg/ml)(Sigma). Lysates were run on SDS-PAGE gels, transferred to Trans-Blot Transfer Medium (Bio-Rad, Hercules, Calif.) and peroxidase-conjugated secondary antibodies were detected using Supersignal West Pico Chemiluminscent Substrate (Pierce). Cytochrome C was detected with 1:100 dilution of Cytochrome C Antibody (Clontech) and 1:2000 Goat Anti-Rabbit IgG (H+L) (Caltag Laboratories, Burlingame, Calif). COX4 was detected with dilutions of 1:1000 COX4 Antibody (Clontech) and 1:1000 Anti-mouse IgG (g)-Peroxidase (Roche, Basel, Switzerland). PARP was detected with dilutions of 1:400 anti-p85 PARP (rabbit polyclonal IgG) (Promega) and 1:5000 goat Anti-Rabbit IgG (H+L) (Caltag Laboratories).
Human ES cells were plated out as small colonies on matrigel, mouse ES cells on gelatin. DEVD.fmk was added twice a day and half of the ES cell medium was changed daily. […]

[7] = system: caspase-3-like activity in ES cells; experiment: in vitro caspase-3 cell lysate assay; type: biochemical, human and mouse; settings: treatment with DEVD.fmk
Description: Activation of caspase-3 is widely considered a marker of the late stages of programmed cell death. In vivo, most of the caspase-3-like enzymatic activity is attributed to caspase-3 and -7. Applicants have therefore assayed caspase-3-like activity in undifferentiated human and mouse ES cell lines using an in vitro cell lysate assay (FIG. 1B, left). […] To further characterize the elevation of caspase-3-like activity in individual ES cells, applicants performed flow cytometry using an antibody specifically recognizing the activated form of caspase-3 (FIG. 1B, right). […] In ES cells, staining for activated caspase-3 was concentrated in the nucleus, with reduced staining in the cytosol (FIG. 1C). In intact embryos, moderate immunostaining of activated caspase-3 was present in all cells of the compacted morula, and in the ICM, but was largely absent in the trophectoderm (FIG. 1D).

human ES cells [8] = experiment: Oct4 staining (flow cytometry / immunocytochemistry) of differentiation; type: cell-based
Protocol: as §4
Cells were treated with trypsin/EDTA and washed with PBS (both reagents are available through Invitrogen Corp.) Dead cells were excluded from analysis by forward- and side-scatter gating. Eighteen samples were analyzed using a FACScan (Becton Dickinson) flow cytometer and Cellquest software (Becton Dickinson). A minimum of 50,000 events were acquired for each sample. For Oct4 expression studies cells were stained for Oct4 using monoclonal Oct4 antibody (1 μl/10^6 cells, available through Santa Cruz). Cells were analyzed by flow cytometry analysis in a fluorescence activated cell sorter. […]

[9] = versus undifferentiated ES cells

N-benzyloxycarbonyl-Asp-Glu-Val-Asp fluoromethylketone (DEVD; HELM PEPTIDE1{[O=C(OCc1ccccc1)[*:2]].D.E.V.D.[FC[*:1]]}$$$$V2.0; SMILES CC(C)[C@H](NC(=O)[C@H](CCC(=O)O)NC(=O)[C@H](CC(=O)O)NC(=O)OCc1ccccc1)C(=O)N[C@@H](CC(=O)O)C(=O)CF) [DEVD.fmk]
development to expanded blastocysts (mouse morulas; 200 μM DEVD.fmk): completely inhibiting development to expanded blastocysts | development of blastocysts (mouse morulas; added to E2.0, E2.5, E3.0 mouse morulas, dose-dependent): inhibited the development of blastocysts | PARP-1 activity [1]: upregulated | up-regulation of DKK4 (human ES cells [2]; microarray, FIG. 7): over 170 fold | upregulation of BMP4 (human ES cells [2]; [9]): 45 X | upregulation of DKK4 (human ES cells [2]; [9]): 137 X | upregulation of GATA-3 (human ES cells [2]; [9]): 9 X | upregulation of WNT3 (human ES cells [2]; [9]): 3 X | upregulation of WNT5A (human ES cells [2]; [9]): 5 X | upregulation of brachyury variant A (human ES cells [2]; [9]): 73 X | time to differentiate into morphologically uniform mesendoderm cells (human ES cells [3]; human ES cells incubated with caspase inhibitor): 2-3 days | cell morphology (human ES cells [3]; human ES cells treated with DEVD.fmk): differentiated to a spindle shape cell with a much smaller nuclear-cytoplasmic ratio | rate of programmed cell death as measured by Annexin-V EGFP staining (human ES cells [4]): dose-dependent reduction | decrease in proliferation of human ES cells (human ES cells [5]; after 3 days): no longer observed | proliferation of human ES cells (human ES cells [5]; first 48 hours after application): small decrease in proliferation | outgrowth: rind and core structures of extraembryonic endoderm overlying epiblast (mouse embryos): always failed to produce prominent rind and core structures | p85 PARP-1 fragment in Western blot analysis [6]: disappearance | caspase-3-like activity [7]: reduced this activity | induction of differentiation as measured by Oct4 staining (human ES cells [8]; human ES cells, p<0.01): dose dependent induction of differentiation | Oct4 staining by immunocytochemistry (human ES cells [8]; spindle-shaped cells after DEVD.fmk, data not shown): failed to stain for Oct4
